According to US12611405B2, “Agent that increases the expression of the BCL2-associated agonist of cell death for the treatment of cancer” (LDN Pharma Limited, priority 2017, dated 2026):

What was measured:
Assay type in all cases: cell-based
[1] = test system: BAD expression in breast cancer cell line MCF-7; experiment: BAD protein expression by western blotting; settings: MCF-7, different concentrations of 6BN (FIG. 3)
[2] = test system: MCF-7 cells; experiment: 6BN given concomitantly with gemcitabine or oxaliplatin, cell number and viability by trypan blue dye exclusion; settings: 10 uM 6BN concomitantly with gemcitabine (0.5 uM) or oxaliplatin (0.5 uM), 48 h
Protocol: The effect of combining 6BN with the chemotherapeutic agents gemcitabine or oxaliplatin was tested by culturing MCF-7 cells with 6BN (10 nM or 10 uM) concomitantly with gemcitabine (0.5 uM) or oxaliplatin (0.5 uM). Cell number and viability was then assessed after 48 h using trypan blue dye exclusion as a means to discriminate live/dead cells.

[3] = test system: HCT116 cells; experiment: Two-phase priming with 6-β-naltrexol then GEM or OXP, cell number and viability by trypan blue counting
Protocol: (§1) The impact of combining 6-β-naltrexol with other chemotherapy agents was tested by culturing cells according to a treatment schedule that involved two phases of treatment. The first phase involved priming with 10 nM 6-β-naltrexol or 10 μM 6-β-naltrexol for 48 h, before treatment with another drug for a further 48 h. A549 and HCT116 cells were seeded into 6-well plates at a density of 2×10^5 cells/well and left to adhere overnight. Media was removed after 48 h, and cells were rinsed gently with drug-free medium. Fresh culture medium that contained gemcitabine (GEM) or oxaliplatin (OXP) was then added to the cells. The concentrations of the chemotherapy agents used were approximately ¼ IC50, as established previously [Liu W M, Fowler D W, Smith P, Dalgleish A G. Pre-treatment with chemotherapy can enhance the antigenicity and immunogenicity of tumours by promoting adaptive immune responses. Br J Cancer. 2010 Jan. 5; 102(1):115-23. doi: 10.1038/sj.bjc.6605465.]. Cells were then left for a further 48 h before assessment of cell number of viability by cell counting using trypan blue dye as a way of discriminating live and dead cells. Cytostasis was indicated by a reduction in cell number and no associated reduction in cell viability.

[4] = test system: A549 cells; experiment: as above
Protocol: as §1

[5] = test system: BAD expression in HCT116 colon cancer cells; experiment: Level of expression of BAD after 48 h culture, immunoblotting
Protocol: In order to determine the effect of 6-β-naltrexol or naltrexone on the level of expression of BAD, pAKT, p21, cyclin B1 and CDK1 HCT116 colon cancer cells were seeded onto 6-well plates at a density of 2×10^5 cell/well, and allowed to adhere overnight. Cells were then cultured in the presence of naltrexone or 6-β-naltrexol at concentrations of 10 nM or 10 μM for a further 48 h. Cells were then harvested and processed for measurements of BAD, or pAKT, p21, cyclin B1 and CDK1 using standard immunoblotting techniques.

[6] = 6-β-naltrexol priming 48 h in an amount raising BAD by at least 10%, then GEM or OXP at approx. ¼ IC50 for 48 h

Row | SMILES | expression of the pro-apoptotic protein BAD [1] | effect on cell viability of the combination with chemotherapy [2] | cytotoxicity of 6-β-naltrexol alone ([3]; 10 nM or 10 μM 6BN, no chemotherapeutic agent (FIG. 2d)) | cytotoxic effect of both chemotherapeutic agents (GEM, OXP) after priming [3, 6] | cytotoxicity of 6-β-naltrexol alone ([4]; 10 nM or 10 μM 6BN, no chemotherapeutic agent (FIG. 2c)) | cytotoxic effect of both chemotherapeutic agents (GEM, OXP) after priming [4, 6] | effect on the level of expression of BAD ([5]; 10 nM) | increase in the level of expression of BAD ([5]; 10 μM) | effect on the level of expression of BAD ([5]; 10 μM)
1 | Oc1ccc2c3c1OC1[C@H](O)CC[C@@]4(O)[C@@H](C2)N(CC2CC2)CC[C@]314 (stereo partly drawn) [6-β-naltrexol, 17-(Cyclopropylmethyl)-4,5-epoxymorphinan-3,6 beta,14-triol] | dose dependent increase | greatest effect on cell viability | absence of any independent increase in cytotoxicity | increased | absence of any independent increase in cytotoxicity | increased | negligible effect | more than 10% | –
2 | O=C1CC[C@@]2(O)[C@H]3Cc4ccc(O)c5c4[C@@]2(CCN3CC2CC2)[C@H]1O5 [naltrexone, reference compound] | – | – | – | – | – | – | negligible effect | – | negligible effect
